Measurements from patent US8834858B2, “Treatment for dyslipidemia” (Solvotrin Therapeutics Ltd., priority 2011, dated 2014).
Where two headings read alike, the source gives them in different places.

Key:
[1] = cited from earlier work
[2] = crystalline nicotinic acid (>1 g), cited from earlier work
[3] = cited from earlier work; remark: listed apart in the source
serum glucose = assay: NHP crossover study: serum glucose
Method: (§1) The primary study endpoint is change in plasma LDL cholesterol and Apolipoprotein B at 48 hours. An aliquot of 300 μL of serum transferred to a cryovial and was immediately placed in a freezer set to maintain −70° C. until analyzed for clinical chemistry (LDL cholesterol, Apolipoprotein B, TGs, glucose) using a standard Roche Analyser.

[4] = secondary prevention; cited from earlier work
[5] = system: LDL cholesterol, Apolipoprotein B, TGs; assay: NHP crossover study: clinical chemistry (LDL-C, ApoB, TG)
Method: as §1

[6] = system: LDL cholesterol, HDL cholesterol, TG; settings: adult dyslipidemias; cited from earlier work
[7] = cited from earlier work; remark: listed apart in the source
blood glucose = settings: cited from earlier work; for patients with diabetes requiring a change in hypoglycemic therapy: in vivo
[8] = 8 and 14 months, on statin therapy; cited from earlier work
PGD2 receptor-1 (DP1) = PGD2 receptor-1 (DP1) (Homo sapiens, UniProt Q13258); settings: nicotinic acid without vs with added laropiprant (Kush 2009); cited from earlier work
Chain of PGD2 receptor-1 (DP1) (Q13258 whole entry): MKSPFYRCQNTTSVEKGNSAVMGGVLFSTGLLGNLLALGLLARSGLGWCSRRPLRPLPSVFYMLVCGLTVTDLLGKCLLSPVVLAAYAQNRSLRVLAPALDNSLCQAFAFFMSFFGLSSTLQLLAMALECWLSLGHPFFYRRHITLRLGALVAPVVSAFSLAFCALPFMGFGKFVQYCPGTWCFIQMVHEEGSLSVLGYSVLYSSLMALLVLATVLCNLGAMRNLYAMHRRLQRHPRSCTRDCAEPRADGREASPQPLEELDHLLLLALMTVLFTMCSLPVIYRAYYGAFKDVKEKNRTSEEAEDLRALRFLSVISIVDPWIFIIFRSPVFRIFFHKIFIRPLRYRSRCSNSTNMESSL

LDL, HDL = settings: cited from earlier work
prostaglandin D2 (PGD2) = assay: NHP crossover study: serum PGD2; assay type: in vivo, cynomolgus monkeys; settings: over 24 hours post dosing, equimolar doses
Method: For TxB2, an additional 0.4 mL whole blood aliquots were placed in siliconised glass tubes to induce a clotting response and the supernatants were analysed for TxB2 using a Luminex ELISA immunoassay. PGD2 was analysed from serum directly using a Luminex ELISA immunoassay.

[9] = baseline to 48 hours, 28 mg/kg niacin equivalents daily oral gavage, n=6

## O=C(O)c1cccnc1 [nicotinic acid]
[1]; five year follow up, men with history of MI
  reduction of incidence of non-fatal re-infarction / risk of myocardial infarction: 27%
[1]; mean follow-up of 15 years
  decrease in all-cause (long-term) mortality: 11%
[2]; oral
  half life: about 60 minutes
  time to peak plasma concentrations: 30 to 60 min
[2]
  oral absorption: almost completely absorbed
[3]; 1,000 mg once daily added to simvastatin
  HDL increase: 21%
[3]; after 12 months
  carotid intima-media thickness (CIMT): unchanged
Serum glucose; 1 hour post dose
  serum glucose change from baseline: significant decrease
Serum glucose; following animal feeding between 1-2 hours post dose
  serum glucose after feeding: rebound to baseline levels
[4]
  coronary artery revascularization, non-fatal MI, stroke and TIA: significant reduction
[5]; 48 hours
  TG levels at 48 hours (follow up): 64 ± 31 mg/dL
[5]; baseline
  TG levels at baseline: 50 ± 10 mg/dL
[5]; baseline to 48 hours
  increase in TG levels (non-significant): 23.3%
[5]; [9]
  reduction from baseline in LDL cholesterol: 33%
  reduction from baseline in apolipoprotein B: 24%
[6]
  HDL cholesterol: +15 to +35%
  LDL cholesterol: −5 to −25%
  TG: −20 to −50%
[7]; Jacobson 2010
  patients discontinuing treatment because of flushing: 5-20%
[7]; review of clinical trials
  users experiencing mild or moderate flushing: > 60%
Blood glucose; doses <2.5 g
  increase in fingerstick glucose levels: 4% to 5
Blood glucose
  patients with diabetes requiring a change in hypoglycemic therapy: 10-35%
Blood glucose; listed as Nicotinic acid
  patients with diabetes requiring a change in hypoglycemic therapy: 10% to 35
[8]
  CIMT: significant reduction
PGD2 receptor-1 (DP1)
  rate of moderate/severe flushing: 50%
LDL, HDL; 1 g/day added to stable statin
  additional lowering of LDL levels: 8%
  additional raise of HDL levels: 24%
LDL, HDL; 2 g/day added to stable statin
  additional lowering of LDL: 20%
  additional raise of HDL cholesterol levels: 27%
Prostaglandin D2 (PGD2)
  PGD2 AUC: 128.3 ± 38.2 ng·h/mL
